Columns and labels:
[1] = test system: F-actin; test: F-actin immunofluorescence in Jurkat T cells; format: cell-based, human
Procedure: Immunofluorescence of F-actin upon KRC overexpression in Jurkat T cells was performed.

[2] = test system: IL-2 promoter; test: IL-2 promoter, NFAT/AP-1 and NFAT luciferase reporters and IL-2 RT-PCR in Jurkat cells; format: cell-based, human
Procedure: FIG. 19(A) Stably transfected Jurkat T cell clones with vector (vec) or KRC (Jurkat-KRC) were stimulated with PMA (50 ng/mL) plus ionomycin (2 μM) for 6 hours. IL-2 mRNA abundance was determined by RT-PCR with tubulin as an internal control. FIG. 19(B) Jurkat cells were transiently transfected with an IL-2-Luciferase reporter along with Vector, KRC, or KRCtr (amino acids 204-1055) and, in all cases, a CMV-β-Gal reporter as an internal control (see text for details). 24 hours later, cells were stimulated with PMA plus ionomycin for 6 hours (upper panel) or Raji cells loaded with SEE for 8 hours (lower panel). Luciferase activity was determined and normalized for β-Galactosidase activity. FIG. 19(C) Jurkat cells were transiently transfected with NFAT/AP-1-, NFAT-, or AP-1-Luciferase reporters and treated as above.
For each transfection, 5×10^6 Jurkat cells were incubated with either IL2-Luc, NFAT/AP1-Luc or AP1-Luc reporter DNA together with pEF vector or pEF-KRC and CMV-βGAL as normalization control in 0.4 ml of RPMI and transfected by electroporation (260 v, 975 uF). Transfected cells were cultured at 37° C. for 20 h in RPMI 1640 medium (Gibco BRL) supplemented with 10% fetal bovine serum. Transfected cells were stimulated with PMA (50 ng/ml) and ionomycin (2 uM) for 6 hours prior to luciferase (Promega) and β-galactosidase assays (Galacton-PLUS substrate system, TROPIX, Inc).
Total RNA was isolated from T cells using TRIZOL™ reagent (Gibco/BRL). One (1) μg of total RNA was reverse transcribed using iScript cDNA Synthesis Kit (BioRad). PCR was performed with 2 uM of each primer (listed below) and 2.5 units of Platinum High fidelity enzyme (Invitrogen) according to the manufacturer.
Jurkat cells were transfected by electroporation and incubated for 20 h at 37° C. before stimulation for 8 h with the Raj i B cell line and Staphylococcal Enteroxin E (SEE) using Raji cells (1:1 with Jurkat cells) and SEE (200 ng/ml).

[3] = test system: IL-2; test: IL-2 ELISA in retrovirally transduced primary CD4+ T cells; format: cell-based; conditions: anti CD3 or anti CD3 plus CD28, 24 hours
Procedure: In panel A Jurkat T cells were stably transfected with vector (pEF) or KRC expression plasmids. Stable clones were stimulated for 18 hours with PMA (50 ng/mL) plus ionomycin (2 μM) and IL-2 production was measured by ELISA. In panel B Primary CD4+ T cells were activated for 36 hours and subsequently transduced with control (RV), KRC, or KRC dominant negative (ZAS2) bicistronic GFP-expressing retroviruses. GFP-positive cells were sorted and stimulated for 24 hours with anti-CD3 or anti-CD3/anti-CD28 antibodies and IL-2 production was measured by ELISA. In panel C CD4 T cells from KRC +/+ or −/− mice were stimulated with anti-CD3 (1.0 μg/mL)/CD28 (0.5 μg/mL) antibodies for 24 hours and IL-2 production was measured by ELISA. In panel D CD4 T cells from KRC +/+ or −/− mice were stimulated with anti-CD3/CD28 antibodies for 72 hours in the presence of 200 U/mL human IL-2. IFNγ production was measured by ELISA.
Activated CD4^+T cells were transduced by RV, RV-KRC or RV-ZAS2 as described previously (Szabo, S. J., et al. (2000) Cell 100:655-669).
Therefore, the effects of KRC overexpression were studied in primary CD4+T cells as well as in the Jurkat line using a retroviral delivery system to express KRC in primary CD4+T cells. […] The ability of each population to produce IL-2 following subsequent activation by anti CD3 or anti CD3 plus CD28 was measured at 24 hours post-stimulation. […]

Substance: KRC: full-length KRC zinc finger protein (SEQ ID NO:2) overexpressed from an expression vector
- actin polymerization (F-actin) [1]: reorganization of F-actin filaments
- PMA/ionomycin induced activity of NFAT reporter ([2]; Jurkat cells): not further increased
- IL-2 promoter-luciferase induction ([2]; Jurkat cells, PMA plus ionomycin): approximately 10 fold
- transactivation of multimerized NFAT/AP-1 and AP-1 elements ([2]; Jurkat cells, PMA/ionomycin): enhanced PMA/ionomycin-induced transactivation
- IL-2 promoter activity increase ([2]; Jurkat cells, Raji cells plus SEE): approximately 10 fold
- IL-2 mRNA transcripts (RT PCR) ([2]; stable Jurkat clones, activated): higher levels of IL-2 transcripts
- IL-2 production, increase versus GFP control retrovirus [3]: 3 to 4 fold

Source: US7615380B2, “Methods for modulating an immune response by modulating KRC activity” (President and Fellows of Harvard College, priority 2001, dated 2009)
